System: Ca^2+ influx in Jurkat T cells
Assay: Live cell Ca^2+ imaging (Fura-2) in Jurkat T cells
Format: cell-based, human
Conditions: 10 μM CPA, absence of extracellular Ca^2+, Fura-2
Experimental: Jurkat T cells were loaded with 4 μM Fura-2 AM (Life Technologies) for 60 min at 37 °C. Cells were then washed 3 times and incubated in Hank’s Balanced Salt Solution (HBSS) for 30 min at room temperature before use. Fluorescence at 340 nm and 380 nm excitation wavelengths was recorded on an inverted Nikon Ti-E microscope equipped with 340, 360 and 380 nm excitation filter wheels using NIS-Elements imaging software (Nikon Instruments Inc., Melville, NY, USA). Fura-2 ratios (F340/F380) reflect changes in [Ca^2+]i upon stimulation. Data were obtained from 100 to 250 cells in time-lapse images from each coverslip.
To test this hypothesis we performed live cell Ca^2+ imaging using the Ca^2+ indicator dye Fura-2 to determine the effect of Ktx-Sp2 on [Ca^2+]i in the presence of intracellular Ca^2+ store depletion by cyclopiazonic acid (CPA), an inhibitor of the sarcoplasmic reticulum Ca^2+-ATPase. […] When 2 mM Ca^2+ was added to the Ca^2+-free HBSS, we observed a large Ca^2+ influx into the cells. […] At 10 μM, Ktx-Sp2 decreased the F340/F380 ratio from 0.14 ± 0.02 to 0.05 ± 0.01 (n = 278) (Fig. 5b).

Question: With CC(=O)C1=C(O)[C@@H]2[C@H]3c4c[nH]c5cccc(c45)C[C@H]3C(C)(C)N2C1=O [CPA, cyclopiazonic acid, reference compound] as the compound, how does the “rise of [Ca^2+]i induced by CPA” value read?
Answer: relative small, transient rise of [Ca^2+]i
